Measured values published in US10857105B2, “Compounds and compositions for intracellular delivery of therapeutic agents” (ModernaTX, Inc., priority 2017, dated 2020).

What was measured:
cynomolgus monkey = experiment: One-month toxicological evaluation with weekly dosing in cynomolgus monkey; assay type: in vivo
Protocol: NHP studies: Nonhuman primate studies were conducted using naïve cynomolgus monkeys (cynos), 2-4 years old, weighing 2-6 kg. No treatment randomization or blinding methods were used for any of the animal studies. Sample sizes were determined by the resource equation method. For injection, mRNA-LNPs in phosphate buffered saline (PBS) were administered by 60-minute intravenous infusion using a temporary indwelling catheter inserted in a peripheral vein.
Serum ALT and AST levels: Samples were analyzed using a Modular Analytics analyzer.
Serum C5b9 levels: C5b9 sample analysis was performed using an ELISA method. The kit used was Human C5b-9 ELISA Set and Reagent Set B from BD Bioscience. Study samples were analyzed in singlicate diluted 1/100.
bDNA for measurement of mRNA levels: mRNA sample analysis (bDNA method) was performed using the QuantiGene® 2.0 Reagent System kit from Affymetrix. Study samples were lysed prior to analysis using the QuantiGene Sample Processing Kit (Blood samples). Study samples were analyzed in duplicate diluted between 1/100 and 1/1250000.
Next, tolerability and safety of the compound 18-based LNPs in vivo was tested. A full toxicological evaluation of compound 18-based LNPs in both Sprague Dawley rat and cynomolgus monkey was performed using a standard one-month study with weekly dosing at three dose levels in each species. Rats were dosed at 0.05, 0.5, and 2 mg/kg and a non-human primates was dosed at 0.1, 0.3, and 1 mg/kg. LNP-related toxicities associated with MC3-based LNP systems are generally associated with immunological (cytokine and complement activation) and hepatic injury. […] FIGS. 32 and 33 highlight the day 30 levels of alanine transferase (ALT, FIG. 32A) and aspartate aminotransferase (AST, FIG. 32B), two indicators of liver damage.

hEPO mRNA = experiment: Pretreatment study (methotrexate or dexamethasone) with MC3 formulation in Cynomolgus monkeys; assay type: in vivo; conditions: once weekly for four weeks, absence of any pretreatment
Source text: In order to combat negative effects, nanoparticle compositions are co-administered with one or more substances (e.g., co-medications or additional therapeutic and/or prophylactics) to subjects. Potentially useful additional therapeutic and/or prophylactics include steroids (e.g., corticosteroids), anti-histamines, H1 receptor blockers, H2 receptor blockers, anti-inflammatory compounds, statins, BTK inhibitors, S1P1 agonists, glucocorticoid receptor modulators (GRMs), and estradiols. Non-human primates are pretreated with one or more additional therapeutic agents selected from dexamethasone and acetaminophen. The additional therapeutic agent is administered either 24 hours, 1 hour, or both 24 hours and 1 hour before administration of a nanoparticle composition. Cytokine profiles, inflammation, and other parameters are measured and compared to evaluate the effectiveness of pretreatment
The effects of pretreatment to non-human primates were evaluated using a standard MC3 formulation including an mRNA encoding hEPO. Male monkeys were administered the nanoparticle composition once weekly for four weeks at a dose rate of 5 ml/kg/h and were pretreated with either methotrexate or dexamethasone.
As shown, in the absence of any pretreatment, maximal expression levels decreased nearly 70% over the course of the study.

Compound	monocyte chemo-attractive protein (MCP-1) (cynomolgus monkey)	ALT and AST levels, day 30 (cynomolgus monkey; 1 mg/kg dose)	circulating mRNA levels after each dose (cynomolgus monkey; bDNA)	toxicological findings (cynomolgus monkey; weekly dosing one month, 0.1, 0.3 and 1 mg/kg)	Decrease of maximal expression levels over the course of the study (hEPO mRNA)
CCCCCCCCCOC(=O)CCCCCCCN(CCO)CCCCCCCC(=O)OC(CCCCCCCC)CCCCCCCC [Compound 18, Heptadecan-9-yl 8-((2-hydroxyethyl)(8-(nonyloxy)-8-oxooctyl)amino)octanoate]	slight variation above baseline	at the same level as the control	consistent exposures	minimal findings at all dose levels	
CCCCCC=CCC=CCCCCCCCCC(CCCCCCCCC=CCC=CCCCCC)OC(=O)CCCN(C)C (centres unmarked) [MC3, heptatriaconta-6,9,28,31-tetraen-19-yl 4-(dimethylamino)butanoate, reference compound]					~70%
